Where only a bound is given, the exact number is not on record here.

T1 sequence (P26663 1658-1711): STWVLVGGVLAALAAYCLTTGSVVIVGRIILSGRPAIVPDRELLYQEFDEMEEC
T1 sequence (P26663 1027-1657): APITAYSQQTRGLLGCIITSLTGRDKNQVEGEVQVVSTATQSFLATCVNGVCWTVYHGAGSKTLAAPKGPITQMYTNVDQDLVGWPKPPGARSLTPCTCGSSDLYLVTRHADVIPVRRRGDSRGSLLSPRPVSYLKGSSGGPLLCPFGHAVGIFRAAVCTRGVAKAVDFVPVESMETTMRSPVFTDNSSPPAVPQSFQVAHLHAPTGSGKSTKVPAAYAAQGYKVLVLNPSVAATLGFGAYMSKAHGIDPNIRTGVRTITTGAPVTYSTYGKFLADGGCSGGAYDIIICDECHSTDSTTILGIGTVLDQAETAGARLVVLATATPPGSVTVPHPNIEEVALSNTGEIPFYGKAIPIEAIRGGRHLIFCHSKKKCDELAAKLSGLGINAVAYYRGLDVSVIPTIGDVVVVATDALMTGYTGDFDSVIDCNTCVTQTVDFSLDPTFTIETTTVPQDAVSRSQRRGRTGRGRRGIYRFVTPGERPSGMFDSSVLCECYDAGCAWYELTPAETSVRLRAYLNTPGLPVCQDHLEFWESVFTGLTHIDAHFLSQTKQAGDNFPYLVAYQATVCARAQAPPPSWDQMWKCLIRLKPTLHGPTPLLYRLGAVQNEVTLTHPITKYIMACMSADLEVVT

The experiment addresses T1, NS3 protease (Hepatitis C virus genotype 1b, UniProt P26663).
T1 construct: expressed in transfected cells; host or cells: Huh-7 human hepatoma cells, transient co-transfection (CMV promoter)
The experiment can be described thus: NS3 protease cell-based assay (SEAP reporter, Huh-7 cells). Also on record: species or system HCV. The settings on record: SEAP activity, 24-hour incubation, read-out: cell. act. (EC50 code). From the text: This assay is done with Huh-7 cells, a human cell line derived from a hepatoma, co-transfected with 2 DNA constructs: one (called NS3) expressing part of the HCV non-structural polyprotein fused to the tTA protein through an NS5A-NS5B cleavage site in the following order: NS3-NS4A-NS4B-NS5A-(NS5B)tTA where (NS5B) represents the 6 first amino acids of NS5
B. This polyprotein is expressed under the control of the CMV promoter, the other (called SEAP) expressing the reporter protein, secreted alkaline phosphatase (SEAP), under the regulation of a tTA-responsive promoter. The first construct leads to the expression of a polyprotein from which the different mature proteins are released through cleavage by the NS3 protease. It is believed that the mature viral proteins forms a complex at the membrane of the endoplasmic reticulum. tTA is a fusion protein, described by Gossen and Bujard (Proc. Natl. Acad. Sci. USA 89 (1992): 5547-5551), which contains a DNA-binding domain and a transcriptional activator. Release of the tTA protein requires an NS3-dependent cleavage at the NS5A-NS5B cleavage site between NS5A and itself. This last cleavage allows tTA to migrate to the nucleus and transactivate the SEAP gene. Therefore, reduction of NS3 proteolytic activity leads to confinement of tTA to the cytoplasm and concomitant decrease in SEAP activity.
To control for cellular activities other than inhibition of NS3 protease which are due to the compound, a parallel co-transfection is done with a construct expressing tTA alone and the same reporter construct such that SEAP activity is independent of the NS3 protease.
Protocol of the assay: Huh-7 cells, grown in CHO-SFMII (Life Technologies)+10% FCS (fetal calf serum) were co-transfected with the two DNA constructs in the following proportions: 7 μg NS3+500 ng SEAP+[…] FuGENE (Boehringer Mannheim) per 4×10^6 Huh-7 cells. After 5 hours at 37° C., the cells were washed, trypsinized and plated (at 80 000 cells/well) in 96-well plates containing a range of concentrations of the compounds to be tested. After a 24-hour incubation period, the SEAP activity in the medium was measured with the Phospha-Light kit (Tropix).
Analysis of the percent inhibition of SEAP activity with respect to compound concentration was performed with the SAS software to obtain the EC50.
The term EC50 denotes the concentration giving half of the maximal effect. Take `COc1ccc2c(O[C@@H]3C[C@H]4C(=O)N[C@]5(C(=O)O)C[C@H]5/C=C\COCCC[C@H](NC(=O)OC(C)(C)C)C(=O)N4C3)cc(-c3ccccc3)nc2c1` [Compound 701]: the EC50 was above 1000 nM.

Consider `COc1ccc2c(O[C@@H]3C[C@H]4C(=O)N[C@]5(C(=O)O)C[C@H]5/C=C\CCCCC[C@H](NC(=O)OC(C)(C)C)C(=O)N4C3)cc(-c3csc(NC(C)=O)n3)nc2c1` [Compound 702], for which the EC50 is at most 1000 nM. Under `CCNc1nc(-c2cc(O[C@@H]3C[C@H]4C(=O)N[C@]5(C(=O)O)CC5CCCCCCC[C@H](NC(=O)OC(C)(C)C)C(=O)N4C3)c3ccc(OC)cc3n2)cs1` (stereo partly shown) [Compound 703] stands at most 1000 nM; under `COc1ccc2c(O[C@@H]3C[C@H]4C(=O)N[C@]5(C(=O)O)C[C@H]5/C=C\CCCCC[C@H](NC(=O)OC(C)(C)C)C(=O)N4C3)cc(-c3ccccn3)nc2c1` [Compound 704], at most 1000 nM. With `COc1ccc2c(O[C@@H]3C[C@H]4C(=O)N[C@]5(C(=O)O)C[C@H]5/C=C\CCCCC[C@H](NC(=O)OC(C)(C)C)C(=O)N4C3)cc(-c3nccs3)nc2c1` [Compound 705] the figure was at most 1000 nM. Under `COc1ccc2c(O[C@@H]3C[C@H]4C(=O)N[C@]5(C(=O)O)C[C@H]5/C=C\CCCCC[C@H](NC(=O)OC(C)(C)C)C(=O)N4C3)cc(-c3csc(C(C)C)n3)nc2c1` [Compound 707] stands at most 1000 nM. Regarding `CCNc1nc(-c2cc(O[C@@H]3C[C@H]4C(=O)N[C@]5(C(=O)O)C[C@H]5/C=C\CCCCC[C@H](NC(=O)OC(C)(C)C)C(=O)N4C3)c3ccc(OC)cc3n2)cs1` [Compound 708], the EC50 is at most 1000 nM. Consider `CCOc1cc(O[C@@H]2C[C@H]3C(=O)N[C@]4(C(=O)O)C[C@H]4/C=C\CCCCC[C@H](NC(=O)OC(C)(C)C)C(=O)N3C2)c2ccc(OC)cc2n1` [Compound 712], for which the EC50 is at most 1000 nM. Turning to `COc1ccc2c(O[C@@H]3C[C@H]4C(=O)N[C@]5(C(=O)O)C[C@H]5/C=C\CCCCC[C@H](NC(=O)OC(C)(C)C)C(=O)N4C3)cc(-n3cccc3)nc2c1` [Compound 715], the EC50 was at most 1000 nM. With `COc1ccc2c(O[C@@H]3C[C@H]4C(=O)N[C@]5(C(=O)O)CC5/C=C\CCCCC[C@H](NC(=O)OC(C)(C)C)C(=O)N4C3)cc(-c3nnc(C)o3)nc2c1` (stereo partly shown) [Compound 716], the EC50 is above 1000 nM.

For the compound `COc1ccc2c(O[C@@H]3C[C@H]4C(=O)N[C@]5(C(=O)O)CC5/C=C\CCCCC[C@H](NC(=O)OC(C)(C)C)C(=O)N4C3)cc(-c3nc(C)no3)nc2c1` (stereo partly shown) [Compound 717], the EC50 was at most 1000 nM. Under `COc1ccc2c(O[C@@H]3C[C@H]4C(=O)N[C@]5(C(=O)O)CC5/C=C\CCCCC[C@H](NC(=O)OC(C)(C)C)C(=O)N4C3)cc(-n3ccnc3)nc2c1` (stereo partly shown) [Compound 718] stands at most 1000 nM; under `COc1ccc2c(O[C@@H]3C[C@H]4C(=O)N[C@]5(C(=O)O)C[C@H]5/C=C\CCCCC[C@H](NC(=O)OC(C)(C)C)C(=O)N4C3)cc(-c3cccc(C)n3)nc2c1` [Compound 719], at most 1000 nM; under `COc1ccc2c(O[C@@H]3C[C@H]4C(=O)N[C@]5(C(=O)O)CC5/C=C\CCCCC[C@H](NC(=O)OC(C)(C)C)C(=O)N4C3)cc(-n3cnc(C)c3)nc2c1` (stereo partly shown) [Compound 722], at most 1000 nM. With `COc1ccc2c(O[C@@H]3C[C@H]4C(=O)N[C@]5(C(=O)O)CC5/C=C\CCCCC[C@H](NC(=O)OC(C)(C)C)C(=O)N4C3)cc(-c3nc(C(C)C)cs3)nc2c1` (stereo partly shown) [Compound 725] the figure was at most 1000 nM.

For the compound `COc1ccc2c(O[C@@H]3C[C@H]4C(=O)N[C@]5(C(=O)O)CC5/C=C\CCCCC[C@H](NC(=O)OC(C)(C)C)C(=O)N4C3)cc(-c3nccn3C)nc2c1` (stereo partly shown) [Compound 726], the EC50 is at most 1000 nM. With `COCc1cc(O[C@@H]2C[C@H]3C(=O)N[C@]4(C(=O)O)C[C@H]4/C=C\CCCCC[C@H](NC(=O)OC(C)(C)C)C(=O)N3C2)c2ccc(OC)cc2n1` [Compound 727] the figure was above 1000 nM; with `COc1ccc2c(O[C@@H]3C[C@H]4C(=O)N[C@]5(C(=O)O)C[C@H]5/C=C\CCCCC[C@H](NC(=O)OC(C)(C)C)C(=O)N4C3)cc(C)nc2c1` [Compound 728], above 1000 nM; with `CNc1nc(-c2cc(O[C@@H]3C[C@H]4C(=O)N[C@]5(C(=O)O)C[C@H]5/C=C\CCCCC[C@H](NC(=O)OC(C)(C)C)C(=O)N4C3)c3ccc(OC)cc3n2)cs1` [Compound 729], at most 1000 nM. Under `COc1ccc2c(O[C@@H]3C[C@H]4C(=O)N[C@]5(C(=O)O)C[C@H]5/C=C\CCCCC[C@H](NC(=O)OC(C)(C)C)C(=O)N4C3)cc(-c3csc(N)n3)nc2c1` [Compound 731] stands at most 1000 nM; under `COc1ccc2c(O[C@@H]3C[C@H]4C(=O)N[C@]5(C(=O)O)C[C@H]5/C=C\CCCCC[C@H](NC(=O)OC(C)(C)C)C(=O)N4C3)cc(C3CCC=CO3)nc2c1` (stereo partly shown) [Compound 732], above 1000 nM. With `COc1ccc2c(O[C@@H]3C[C@H]4C(=O)N[C@]5(C(=O)O)CC5/C=C\CCCCC[C@H](NC(=O)OC(C)(C)C)C(=O)N4C3)cc(-n3cccn3)nc2c1` (stereo partly shown) [Compound 733] the figure was at most 1000 nM. In the case of `COc1ccc2c(O[C@@H]3C[C@H]4C(=O)N[C@]5(C(=O)O)CC5/C=C\CCCCC[C@H](NC(=O)OC(C)(C)C)C(=O)N4C3)cc(-n3cc(C)cn3)nc2c1` (stereo partly shown) [Compound 734], the EC50 is at most 1000 nM. On to `COc1ccc2c(O[C@@H]3C[C@H]4C(=O)N[C@]5(C(=O)O)C[C@H]5/C=C\CCCCC[C@H](NC(=O)OC(C)(C)C)C(=O)N4C3)cc(-c3csc(NC=O)n3)nc2c1` [Compound 735], for which the EC50 was at most 1000 nM.

For `COC(=O)Nc1nc(-c2cc(O[C@@H]3C[C@H]4C(=O)N[C@]5(C(=O)O)C[C@H]5/C=C\CCCCC[C@H](NC(=O)OC(C)(C)C)C(=O)N4C3)c3ccc(OC)cc3n2)cs1` [Compound 736], the EC50 is at most 1000 nM. For the compound `COc1ccc(-c2cc(O[C@@H]3C[C@H]4C(=O)N[C@]5(C(=O)O)C[C@H]5/C=C\CCCCC[C@H](NC(=O)OC(C)(C)C)C(=O)N4C3)c3ccc(OC)cc3n2)nc1` [Compound 737], the EC50 was at most 1000 nM. Take `COc1ccc2c(O[C@@H]3C[C@H]4C(=O)N[C@]5(C(=O)O)CC5/C=C\CCCCC[C@H](NC(=O)OC(C)(C)C)C(=O)N4C3)cc(-n3ccc(C)n3)nc2c1` (stereo partly shown) [Compound 738]: the EC50 is at most 1000 nM. As to `COc1ccc2c(O[C@@H]3C[C@H]4C(=O)N[C@]5(C(=O)O)C[C@H]5/C=C\CCCCC[C@H](NC(=O)OC(C)(C)C)C(=O)N4C3)cc(-c3csc(NC(C)C)n3)nc2c1` [Compound 741], the EC50 was at most 1000 nM. With `CCNc1nc(-c2cc(O[C@@H]3C[C@H]4C(=O)N[C@]5(C(=O)O)CC5/C=C\CCCCC[C@H](NC(=O)OC5CCCC5)C(=O)N4C3)c3ccc(OC)cc3n2)cs1` (stereo partly shown) [Compound 810] the figure was at most 1000 nM. `CNc1nc(-c2cc(O[C@@H]3C[C@H]4C(=O)N[C@]5(C(=O)O)CC5/C=C\CCCCC[C@H](NC(=O)OC5CCCC5)C(=O)N4C3)c3ccc(OC)cc3n2)cs1` (stereo partly shown) [Compound 811]: the EC50 is at most 1000 nM. Turning to `COC(=O)Nc1nc(-c2cc(O[C@@H]3C[C@H]4C(=O)N[C@]5(C(=O)O)CC5/C=C\CCCCC[C@H](NC(=O)OC5CCCC5)C(=O)N4C3)c3ccc(OC)cc3n2)cs1` (stereo partly shown) [Compound 818], the EC50 was at most 1000 nM. In the case of `COc1ccc2c(O[C@@H]3C[C@H]4C(=O)N[C@]5(C(=O)O)CC5/C=C\CCCCC[C@H](NC(=O)OC5CCCC5)C(=O)N4C3)cc(-c3csc(NC(=O)OCC(C)C)n3)nc2c1` (stereo partly shown) [Compound 819], the EC50 was at most 1000 nM.

With `COc1ccc2c(O[C@@H]3C[C@H]4C(=O)N[C@]5(C(=O)O)CC5/C=C\CCCCC[C@H](NC(=O)OC5CCCC5)C(=O)N4C3)cc(-c3csc(NC(C)C)n3)nc2c1` (stereo partly shown) [Compound 822], the EC50 is at most 1000 nM. For `COc1ccc2c(O[C@@H]3C[C@H]4C(=O)N[C@]5(C(=O)O)CC5/C=C\CCCCC[C@H](NC(=O)OC5CCCC5)C(=O)N4C3)cc(-c3csc(NC4CC4)n3)nc2c1` (stereo partly shown) [Compound 825], the EC50 was at most 1000 nM.

For `COc1ccc2c(O[C@@H]3C[C@H]4C(=O)N[C@]5(C(=O)O)CC5/C=C\CCCCC[C@H](NC(=O)OC5CCCC5)C(=O)N4C3)cc(-c3csc(NC4CCC4)n3)nc2c1` (stereo partly shown) [Compound 826], the EC50 was at most 1000 nM.

As for `COc1ccc2c(O[C@@H]3C[C@H]4C(=O)N[C@]5(C(=O)O)CC5/C=C\CCCCC[C@H](NC(=O)OC5CCCC5)C(=O)N4C3)cc(-c3csc(NC4CCCC4)n3)nc2c1` (stereo partly shown) [Compound 827], the EC50 was at most 1000 nM. With `COc1ccc2c(O[C@@H]3C[C@H]4C(=O)N[C@]5(C(=O)O)CC5/C=C\CCCCC[C@H](NC(=O)OC5CCCC5)C(=O)N4C3)cc(-c3csc(NC4CCCCC4)n3)nc2c1` (stereo partly shown) [Compound 828] the figure was at most 1000 nM.

The values above are taken from US6608027B1, “Macrocyclic peptides active against the hepatitis C virus” (Boehringer Ingelheim (Canada) Ltd, priority 1999, dated 2003).
